PMC6543056 (Acta Pharmaceutica Sinica. B, 2019)

Target: Vps34 (Homo sapiens, UniProt Q8NEB9)
Assay: ELISA assay of Vps34 kinase activity
Assay type: biochemical
Conditions: Fig. S4

Vps34, sequence (Q8NEB9 whole entry): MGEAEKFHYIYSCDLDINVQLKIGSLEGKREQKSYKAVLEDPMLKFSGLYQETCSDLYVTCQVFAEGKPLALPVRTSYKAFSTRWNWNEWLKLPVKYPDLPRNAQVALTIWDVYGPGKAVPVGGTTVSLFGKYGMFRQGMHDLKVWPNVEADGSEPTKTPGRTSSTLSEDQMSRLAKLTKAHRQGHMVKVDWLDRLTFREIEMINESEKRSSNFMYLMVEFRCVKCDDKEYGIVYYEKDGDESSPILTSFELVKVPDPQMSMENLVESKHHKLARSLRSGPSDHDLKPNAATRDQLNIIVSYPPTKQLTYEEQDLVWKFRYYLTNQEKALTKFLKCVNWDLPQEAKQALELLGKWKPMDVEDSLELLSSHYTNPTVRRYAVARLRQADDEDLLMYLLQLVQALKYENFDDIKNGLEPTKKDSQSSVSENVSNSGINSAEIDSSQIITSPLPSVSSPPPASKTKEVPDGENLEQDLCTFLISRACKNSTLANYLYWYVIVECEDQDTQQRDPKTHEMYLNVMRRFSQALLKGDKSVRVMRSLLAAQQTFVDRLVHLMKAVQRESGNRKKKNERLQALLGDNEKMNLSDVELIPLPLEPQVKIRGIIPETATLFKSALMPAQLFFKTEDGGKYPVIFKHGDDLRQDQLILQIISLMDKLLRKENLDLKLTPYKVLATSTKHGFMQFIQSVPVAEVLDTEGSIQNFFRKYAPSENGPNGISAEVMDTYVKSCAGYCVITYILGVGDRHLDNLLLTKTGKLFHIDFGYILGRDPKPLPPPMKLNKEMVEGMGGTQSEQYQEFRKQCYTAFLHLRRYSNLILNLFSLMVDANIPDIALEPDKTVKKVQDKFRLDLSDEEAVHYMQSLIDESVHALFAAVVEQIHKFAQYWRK

## O=C1/C(=C/C=C/c2ccccc2)Oc2cc(O)ccc21 [1d]
  Vps34 inhibition of analogues, SAR (in words): abolishment of activity
